Data on 26 compounds can be found in EP1641803B1, “THIENOPYRIMIDINE DERIVATIVES AS POTASSIUM CHANNEL INHIBITORS” (Xention Limited, priority 2003, dated 2004).

The experiment deals with hKv1.5 (Homo sapiens, UniProt P22460). The experiment is described as follows: Kv1.5 Autopatch Electrophysiology (whole cell patch-clamp). In kind it is cell-based. The following applies: compound at 1µM, room temperature (22-24°C), held at -80mV, step to 0mV for 1000ms, total charge measured. How it is done: The external bathing solution contained (in mM): 150 NaCl, 10 KCl, […], 3 MgCl2, 1 CaCl2, 10 HEPES, pH 7.4. Patch pipettes were filled with an electrode solution of composition (in mM): 160 KCl, 0.5 MgCl2, 10 HEPES, 1 EGTA, pH 7.4 with KOH.
hKv1.5, sequence (P22460 whole entry): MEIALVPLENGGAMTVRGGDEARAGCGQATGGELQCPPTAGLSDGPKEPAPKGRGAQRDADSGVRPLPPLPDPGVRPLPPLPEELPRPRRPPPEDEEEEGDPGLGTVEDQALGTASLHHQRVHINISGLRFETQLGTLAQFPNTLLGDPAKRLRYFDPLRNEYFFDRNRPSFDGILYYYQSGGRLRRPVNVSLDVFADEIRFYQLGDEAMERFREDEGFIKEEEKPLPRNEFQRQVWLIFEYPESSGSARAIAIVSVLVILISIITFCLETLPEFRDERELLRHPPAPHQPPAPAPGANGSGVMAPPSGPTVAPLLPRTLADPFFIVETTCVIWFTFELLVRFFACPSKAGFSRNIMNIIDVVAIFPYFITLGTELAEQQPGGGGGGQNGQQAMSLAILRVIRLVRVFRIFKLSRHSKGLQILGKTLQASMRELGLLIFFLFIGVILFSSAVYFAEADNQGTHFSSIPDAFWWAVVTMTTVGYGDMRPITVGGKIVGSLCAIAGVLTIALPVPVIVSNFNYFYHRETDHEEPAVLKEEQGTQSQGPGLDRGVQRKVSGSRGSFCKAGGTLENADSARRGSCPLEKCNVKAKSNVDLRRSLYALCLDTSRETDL
Compounds were dissolved in DMSO (100 %) and made up in the external bather at a concentration of 1µM. All experiments were conducted at room temperature (22-24°C).
A cell suspension (10 ml), with a density of 100,000 cells/ml, was aliquoted into a 15ml centrifuge tube and transferred to an incubator (37°C, 5% CO2) for approximately one hour before use. Following 60 min incubation, a tube was taken and centrifuged at 1000 rpm for 4 mins at room temperature. 9.5 ml supernatant was thence discarded, leaving a cell pellet at the bottom of the tube. The pellet was then resuspended using 100 µl of cold (4 °C), filtered (0.22 µm), 0.2 % BSA/bather solution (0.02g BSA/10ml bather). The bottom of the tube was manually agitated gently until the solution became cloudy with cells. The 100 µl cell resuspension solution was then stored on the bench at 4 °C (using a Peltier-based temperature control device) until used.
A length of capillary glass (1B150F-4, WPI) was dipped into the cell suspension solution, such that - 3 cm column of fluid was taken up by capillary action. A Ag/AgCl wire was dropped into the non-dipped end of the capillary also. The outside of the solution-filled end of the capillary was then dried and the capillary was loaded into the AutoPatch™. Borosilicate glass patch pipettes (from 1.5mm OD, thin-walled filamented, GC150-TF capillary glass, Harvard) were pulled using a DMZ pipette puller (Zeitz Instruments), and were back-filled using the internal pipette solution, being careful that no bubbles remain at the tip or in the body of the pipette. Patch pipettes typically had resistances of 2.3-3.5 MΩ. Once filled, the pipette tip and a proportion of the shaft (- 15 mm) were dipped into Sigmacote (Sigma). The recording pipette was then loaded into the AutoPatch™.
Automated patch-clamping was initiated by the operator, but thereafter AutoPatch.exe continued the experiment providing that pre-set conditions and criteria were satisfied.
Whole cell patch-clamp recordings were made using the AutoPatch™ rig, which incorporated an EPC9 amplifier (HEKA, Germany) under control of Pulse software (v8.54, HEKA, Germany), a motion controller with 2 translators (Newport, UK), valve controller (VF1) and a c-level suction device all at room temperature (22-24°C). This equipment was completely under the control of AutoPatch.exe and operator intervention was only made when there was a requirement to refill the drug reservoirs or to prevent the loss of a cell due to a technical error. Cells with an Rseries greater than 18 MΩ were discounted from the experiment.
Qualification stages prior to perfusion and drug application ensured that the observed current met the criteria for the experiment. Only those cells with an IK > 500 pA were used for experiments. Cells were continuously perfused with external solution at a flow rate of 1.8-2 ml/minute. […] Online analysis of the hKv1.5 current during the application of compounds was performed by the AutoPatch™ software. Voltage-step protocols and analysis of data was performed as described for conventional electrophysiology.
Electrophysiology voltage-step protocols and analysis of data was performed as follows. Data was sampled at 5kHz, and filtered with a -3 dB bandwidth of 2.5kHz. Cells were held at a voltage of -80mV. Currents were evoked to a voltage step for 1000ms in duration at 0mV every 5s. Currents were analysed using Pulsefit software (v8.54, HEKA, Germany), with the total charge measured during the whole of the voltage step. All other plots were produced using Igor Pro (WaveMetrics).
Background: In patch-clamp work, channel activity is measured electrically.
As usually defined, the inhibition is the drop in the measured response relative to a control, in per cent. Low values mean a response near the control, high ones a response far below the control. For the compound `FC(F)(F)Oc1ccc(-c2csc3ncnc(NCc4ccccn4)c23)cc1` [Example 317, Pyridin-2-ylmethyl-[5-(4-trifluoromethoxy-phenyl)-thieno[2,3-d]pyrimidin-4-yl]-amine], the inhibition at 1 µM was found to be 98%.
For the compound `Cc1cccnc1CNc1ncnc2scc(-c3ccccc3)c12` [Example 156, (3-methyl-pyridin-2-ylmethyl)-(5-phenyl-thieno[2,3-d]pyrimidin-4-yl)-amine], testing at 1 µM gave an inhibition of 92%.
The same measure, in the same setting: under `Cc1cccc(CNc2ncnc3sc(Br)c(-c4ccccc4)c23)n1` [Example 167, 6-bromo-N-[(6-methylpyridin-2-yl)methyl]-5-phenylthieno[2,3-d]pyrimidin-4-amine] stands 99%; under `COc1ccc(-c2csc3ncnc(NCc4ccccn4)c23)cc1` [Example 138, [5-(4-Methoxy-phenyl)-thieno[2,3-d]pyrimidin-4-yl]-pyridin-2-ylmethyl-amine], 92.6%.
For the compound `OCC(O)CNc1nc(NCc2ccccn2)c2c(-c3ccccc3)csc2n1` (centres unmarked) [Example 214, 3-{5-Phenyl-4-[(pyridin-2-ylmethyl)-amino]-thieno[2,3-d]pyrimidin-2-ylamino}-propane-1,2-diol], the inhibition at 1 µM turned out to be 87%.
Still for that read-out and setting: as for `COc1ccc(-c2csc3ncnc(NCc4ccccn4)c23)cn1` [Example 328, [5-(6-Methoxy-pyridin-3-yl)-thieno[2,3-d]pyrimidin-4-yl]-pyridin-2-ylmethyl-amine], the figure is 83%.
Same read-out and setting: as for `FC(F)(F)c1cc(-c2csc3ncnc(NCc4ccccn4)c23)ccc1Cl` [Example 330, [5-(4-Chloro-3-trifluoromethyl-phenyl)-thieno[2,3-d]pyrimidin-4-yl]-pyridin-2-ylmethyl-amine], the figure is 79%; as for `COCOc1ccc(-c2csc3ncnc(NCc4ccccn4)c23)cc1` [Example 324, [5-(4-Methoxymethoxy-phenyl)-thieno[2,3-d]pyrimidin-4-yl]-pyridin-2-ylmethyl-amine], 93%.
The same measure, in the same setting: as for `COCCNc1nc(NCc2ccccn2)c2c(-c3ccccc3)csc2n1` [Example 189, N^2-(2-Methoxyethyl)-5-phenyl-N^4-(pyridin-2-ylmethyl)thieno[2,3-d]pyrimidine-2,4-diamine], the figure is 97.4%; as for `COCc1nc(NCc2ccccn2)c2c(-c3ccccc3)csc2n1` [Example 305, (2-Methoxymethyl-5-phenylthien[2,3-d]primidin-4-yl)pyridin-2-ylmethylamine], 94%; as for `Cc1ccc(-c2csc3ncnc(NCc4ccccn4)c23)cc1` [Example 318, Pyridin-2-ylmethyl-(5-p-tolyl-thieno[2,3-d]pyrimidin-4-yl)-amine], 98%.
In the case of `Clc1ccc(-c2csc3ncnc(NCc4ccccn4)c23)c(Cl)c1` [Example 329, [5-(2,4-Dichloro-phenyl)-thieno[2,3-d]pyrimidin-4-yl]-pyridin-2-ylmethyl-amine], at 1 µM the inhibition was 81%.
Same read-out and setting: under `Nc1nc(NCc2ccccn2)c2c(-c3ccccc3)csc2n1` [Example 192, 5-Phenyl-N-4-pyridin-2-ylmethyl-thieno[2,3-d]pyrimidine-2,4-diamine] stands 90%.
Consider `Cc1ccc(-c2csc3ncnc(NCc4ccccn4)c23)cc1C` [Example 316, [5-(3,4-Dimethyl-phenyl)-thieno[2,3-d]pyrimidin-4-yl]-pyridin-2-ylmethyl-amine], for which at 1 µM the inhibition was 98%.
The compound `c1ccc(-c2csc3nc(CN4CCOCC4)nc(NCc4ccccn4)c23)cc1` [Example 303, (2-Morpholin-4-ylmethyl-5-phenyl-thieno[2,3-d]pyrimidin-4-yl)-pyridin-2-ylmethyl-amine] yielded an inhibition at 1 µM of 63%.
Same read-out and setting: as for `CN(C)Cc1nc(NCc2ccccn2)c2c(-c3ccccc3)csc2n1` [Example 302, (2-Dimethylaminomethyl-5-phenylthieno[2,3-d]pyrimidin-4-yl)pyridin-2-ylmethylamine], the figure is 76%; as for `CNC(=O)Cc1nc(NCc2ccccn2)c2c(-c3ccccc3)csc2n1` [Example 287, N-Methyl-2-{5-phenyl-4-[{pyridin-2-ylmethyl)amino]thieno[2,3-d]pyrimidin-2-yl}acetamide], 91%.
The term % Inhibition denotes the share of the control response that was lost under treatment. Read a high % Inhibition as a strong effect. Consider `c1ccc(CNc2ncnc3scc(-c4ccc5c(c4)OCO5)c23)nc1` [Example 319, (5-Benzo[1,3]dioxol-5-yl-thieno[2,3-d]pyrimidin-4-yl)-pyridin-2-ylmethyl-amine], for which the “% Inhibition at 1µM” value amounted to 97.3%.
For `CNCc1nc(NCc2ccccn2)c2c(-c3ccccc3)csc2n1` [Example 304, (2-Methylaminomethyl-5-phenyl-thieno[2,3-d]pyrimidin-4-yl)-pyridin-2-ylmethyl-amine], 1 µM produced 58% inhibition.
Still for that read-out and setting: under `CN(C)c1nc(NCc2ccccn2)c2c(-c3ccccc3)csc2n1` [Example 198, N^2,N^2-Dimethyl-5-phenyl-N^4-pyridin-2-ylmethyl-thieno[2,3-d]pyrimidine-2,4-diamine] stands 98.1%; under `Cc1cccc(CNc2ncnc3sc(C)c(-c4ccccc4)c23)n1` [Example 166, 6-methyl-N-[(6-methylpyridin-2-yl)methyl]-5-phenylthieno[2,3-d]pyrimidin-4-amine], 97%.
Same read-out and setting: under `CN1CCN(c2nc(NCc3ccccn3)c3c(-c4ccccc4)csc3n2)CC1` [Example 215, [2-(4-Methyl-piperazin-1-yl)-5-phenyl-thieno[2,3-d]pyrimidin-4-yl]-pyridin-2-ylmethyl-amine] stands 82%.
Consider `COC(=O)c1ccc(-c2csc3ncnc(NCc4ccccn4)c23)cc1` [Example 327, 4-{4-[(Pyridin-2-ylmethyl)-amino]-thieno[2,3-d]pyrimidin-5-yl}-benzoic acid methyl ester], for which the inhibition at 1 µM was 83%.
For `CCOC(=O)c1cccnc1CNc1ncnc2scc(-c3ccccc3)c12` [Example 160, 2-[(5-Phenyl-thieno[2,3-d]pyrimidin-4-ylamino)-methyl]-nicotinic acid ethyl ester], the inhibition at 1 µM came to 80%.
Take `CC(Nc1ncnc2scc(-c3ccccc3)c12)c1ccccn1` (centres unmarked) [Example 149, (5-Phenyl-thieno[2,3-d]pyrimidin-4-yl)-(1-pyridin-2-yl-ethyl)-amine]: the inhibition at 1 µM was 78%.
The same measure, in the same setting: under `CN(C)c1ccc(-c2csc3ncnc(NCc4ccccn4)c23)cc1` [Example 315, [5-(4-Dimethylamino-phenyl)-thieno[2,3-d]pyrimidin-4-yl]-pyridin-2-ylmethyl-amine] stands 98%.
